Drawing on PubChem BioAssay (NCI), this text covers TGI for 13 molecules.

Among the test systems are 786-0 renal; A549 NSCLC; HT29 colon; MALME-3M melanoma; DU-145 prostate; NCI-H23 lung; BT-549 breast; SW-620 colon; IGROV1 ovarian; UO-31 renal; T-47D breast; UACC-257 melanoma; CAKI-1 renal; HOP-92 NSCLC; SF-268 CNS; UACC-62 melanoma; HCC-2998 colon.
Holding throughout (assay): NCI anticancer screen, dose series, 48 h

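Results reflect a 48-hour exposure of cells in 96-well plates to compound at five concentrations. Definition used: TGI = concentration required for complete inhibition of growth.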

With `CC(C)(C)n1c(=O)n2n(c1=O)C1c3cccc4cccc(c34)C2C2c3cccc4cccc(c34)C1n1c(=O)n(C(C)(C)C)c(=O)n12`, the TGI in the assay on 786-0 renal, with A549 NSCLC, in the assay with HT29 colon, with MALME-3M melanoma, in the assay with DU-145 prostate and in the assay with NCI-H23 lung was greater than 100 µM each time. Also, the TGI in the assay on BT-549 breast, in the assay on SW-620 colon, in the assay with IGROV1 ovarian, in the assay with UO-31 renal, in the assay on T-47D breast and in the assay with UACC-257 melanoma was greater than 100 µM each time. The TGI in the assay with CAKI-1 renal, with HOP-92 NSCLC, with SF-268 CNS, in the assay with UACC-62 melanoma and in the assay with HCC-2998 colon was greater than 100 µM throughout.
Turning to `O=C1C=C(c2ccccc2)O/C1=C\C(=O)c1ccc(Cl)cc1`, the TGI with 786-0 renal is 28.8 µM; in the assay with HT29 colon, 13.1 µM; in the assay on MALME-3M melanoma, 29.4 µM; in the assay on DU-145 prostate, greater than 100 µM; with NCI-H23 lung, 65.8 µM; in the assay with BT-549 breast, 25.3 µM. The TGI came to 10.1 µM with SW-620 colon; 35.8 µM in the assay with IGROV1 ovarian; 35.8 µM in the assay with UO-31 renal; 74.1 µM with T-47D breast; 37.1 µM with UACC-257 melanoma; 32.5 µM in the assay on CAKI-1 renal. The TGI in the assay with HOP-92 NSCLC turned out to be 50 µM; in the assay with SF-268 CNS, 52.2 µM; in the assay with UACC-62 melanoma, 30.4 µM; in the assay with HCC-2998 colon, 87.5 µM.
Regarding `CC(=O)Oc1ccc2cc(-c3ccc(OC(C)=O)c(OC(C)=O)c3)c(=O)oc2c1`, the TGI in the assay on 786-0 renal, in the assay on A549 NSCLC, in the assay on HT29 colon, in the assay on MALME-3M melanoma, in the assay with DU-145 prostate and with NCI-H23 lung was greater than 100 µM throughout. Moreover, the TGI with BT-549 breast was greater than 100 µM; in the assay on SW-620 colon, greater than 100 µM; with UO-31 renal, greater than 100 µM; in the assay with T-47D breast, 62.1 µM; with UACC-257 melanoma, greater than 100 µM; with HOP-92 NSCLC, 95.2 µM. In addition, the TGI in the assay with SF-268 CNS and with HCC-2998 colon was greater than 100 µM throughout.
As for `CN(C)CC1CCC/C(=C\c2ccccc2)C1=O` (stereo not drawn), the TGI in the assay on 786-0 renal came out at 6.9 µM; with A549 NSCLC, 38.2 µM; in the assay on HT29 colon it was 3.18 µM; with MALME-3M melanoma, 3.46 µM; in the assay with DU-145 prostate, 28.6 µM; in the assay with NCI-H23 lung, 22.8 µM. Moreover, the TGI with BT-549 breast worked out at 23.1 µM; in the assay with SW-620 colon it was 3.07 µM; with IGROV1 ovarian, 13.9 µM; in the assay with UO-31 renal it was 5.08 µM; with T-47D breast, 4.35 µM; in the assay on UACC-257 melanoma, 7.45 µM. Besides, the TGI in the assay on CAKI-1 renal is 3.2 µM; in the assay on HOP-92 NSCLC it was 8.26 µM; in the assay on SF-268 CNS, 7.44 µM; in the assay with UACC-62 melanoma, 20.2 µM; with HCC-2998 colon, 29 µM.
As for `CCNc1nnc(-c2ccccc2Nc2ccccc2-c2nnc(NCC)s2)s1`, the TGI with 786-0 renal is 17 µM; in the assay on A549 NSCLC, greater than 62 µM; in the assay on HT29 colon it was 60.5 µM; with MALME-3M melanoma it was 58.4 µM; with DU-145 prostate, 40.1 µM; in the assay with NCI-H23 lung, 73.3 µM. The TGI with BT-549 breast was greater than 79.7 µM; in the assay with SW-620 colon, greater than 100 µM; in the assay with IGROV1 ovarian, greater than 100 µM; in the assay on UO-31 renal, 21.3 µM; in the assay with T-47D breast, greater than 84.8 µM; in the assay with UACC-257 melanoma it was 90.3 µM. The TGI in the assay with CAKI-1 renal amounted to 17 µM; in the assay on HOP-92 NSCLC it was 54.2 µM; in the assay with SF-268 CNS it was 68.6 µM; in the assay with UACC-62 melanoma, 35.3 µM; with HCC-2998 colon, 27.8 µM.
As for `O=C1/C(=C/c2ccc(O)c(O)c2)CC/C1=C\c1ccc(O)c(O)c1`, the TGI with 786-0 renal was 38.2 µM; in the assay with A549 NSCLC it was greater than 79.9 µM; in the assay with HT29 colon it was greater than 100 µM; with MALME-3M melanoma it was greater than 100 µM; in the assay with DU-145 prostate, greater than 100 µM; in the assay with NCI-H23 lung, 11.3 µM. Moreover, the TGI is 28.9 µM in the assay on BT-549 breast; greater than 100 µM in the assay with SW-620 colon; greater than 58.5 µM in the assay with IGROV1 ovarian; 7.31 µM in the assay on UO-31 renal; 63.3 µM with T-47D breast; greater than 100 µM in the assay on UACC-257 melanoma. Moreover, the TGI is greater than 57.7 µM in the assay with CAKI-1 renal; 76.1 µM in the assay with HOP-92 NSCLC; 26.7 µM in the assay on SF-268 CNS; 26 µM with UACC-62 melanoma; greater than 100 µM in the assay on HCC-2998 colon.
For the molecule `CCC1CCC2c3c([nH]c4ccc(C)cc34)C3C(=O)N(N(C)C)C(=O)C3C2C1` (stereo not drawn), the TGI was greater than 60.1 µM in the assay on 786-0 renal; greater than 100 µM in the assay with A549 NSCLC; greater than 100 µM in the assay on HT29 colon; 39.2 µM in the assay on MALME-3M melanoma; greater than 100 µM in the assay on DU-145 prostate; greater than 100 µM in the assay on NCI-H23 lung. Also, the TGI was greater than 100 µM in the assay with BT-549 breast; greater than 100 µM in the assay on SW-620 colon; greater than 100 µM with IGROV1 ovarian; greater than 100 µM with UO-31 renal; 41.2 µM with T-47D breast; greater than 100 µM with UACC-257 melanoma. Further, the TGI with CAKI-1 renal is greater than 100 µM; in the assay with HOP-92 NSCLC, greater than 100 µM; with SF-268 CNS, greater than 59.8 µM; with UACC-62 melanoma, greater than 100 µM; in the assay on HCC-2998 colon, greater than 100 µM.
As to `CC(=O)NC1COC(COC(=O)CCCCCCCCCCNC(=O)c2ccc([N+](=O)[O-])c3c(=O)c4ccccc4[nH]c23)C(O)C1OC(C)C(=O)NC(C(=O)NC(CCC(N)=O)C(=O)OCc1ccccc1)C(C)C` (stereo not drawn), the TGI is greater than 58.6 µM in the assay with 786-0 renal; 71.9 µM in the assay on A549 NSCLC; 22.2 µM with HT29 colon; greater than 83.8 µM in the assay on MALME-3M melanoma; 12.3 µM in the assay with DU-145 prostate; 27.3 µM in the assay with NCI-H23 lung. Moreover, the TGI with BT-549 breast is greater than 83.1 µM; in the assay on SW-620 colon it was greater than 72.8 µM; in the assay on IGROV1 ovarian, 18.3 µM; in the assay on UO-31 renal it was 19.1 µM; with T-47D breast, 13 µM; in the assay on UACC-257 melanoma, 38.6 µM. Besides, the TGI stood at 23.4 µM in the assay with CAKI-1 renal; 31.5 µM with HOP-92 NSCLC; 32.8 µM with SF-268 CNS; 58.9 µM in the assay on UACC-62 melanoma; 14.3 µM in the assay with HCC-2998 colon.
On to `O=S(=O)(c1cc(Cl)ccc1Cl)N1CCN(c2cccc(Cl)c2)CC1`, for which the TGI in the assay with 786-0 renal, with A549 NSCLC, in the assay on HT29 colon, in the assay with MALME-3M melanoma, with DU-145 prostate and in the assay on NCI-H23 lung was greater than 100 µM in each case. In addition, the TGI in the assay on BT-549 breast, in the assay with SW-620 colon, in the assay with IGROV1 ovarian, with UO-31 renal, in the assay with T-47D breast and in the assay with UACC-257 melanoma was greater than 100 µM in each case. The TGI in the assay on CAKI-1 renal, in the assay with HOP-92 NSCLC, in the assay with SF-268 CNS and in the assay on HCC-2998 colon was greater than 100 µM each time.
On to `Cc1ccsc1C(=S)Nc1ccc(Cl)c(/C=N/OC(C)C)c1`, for which the TGI in the assay on 786-0 renal was greater than 100 µM; in the assay with A549 NSCLC, greater than 100 µM; in the assay with HT29 colon, greater than 100 µM; in the assay with MALME-3M melanoma, 98.9 µM; in the assay on DU-145 prostate, greater than 100 µM; with NCI-H23 lung, greater than 100 µM. Besides, the TGI in the assay with BT-549 breast, in the assay on SW-620 colon, in the assay with IGROV1 ovarian, in the assay on UO-31 renal, in the assay with T-47D breast and in the assay on UACC-257 melanoma was greater than 100 µM throughout. Besides, the TGI is greater than 100 µM in the assay on CAKI-1 renal; greater than 100 µM with HOP-92 NSCLC; greater than 100 µM with SF-268 CNS; greater than 100 µM in the assay with UACC-62 melanoma; 64.3 µM with HCC-2998 colon.
As for `CCCCCCCCCCOCCOCCOCCOCCCCC(O)CCCCCCCC1=C[C@H](C)OC1=O` (stereo partly drawn), the TGI with 786-0 renal came to 45.5 µM; in the assay with A549 NSCLC, 29.9 µM; in the assay with HT29 colon, 24.4 µM; with MALME-3M melanoma, 46.3 µM; in the assay with DU-145 prostate, 41.3 µM; in the assay with NCI-H23 lung, 16.6 µM. In addition, the TGI in the assay with BT-549 breast is 16.1 µM; in the assay on SW-620 colon it was 29.5 µM; with IGROV1 ovarian, 30.5 µM; in the assay on UO-31 renal it was 18.3 µM; in the assay with T-47D breast, 75 µM; in the assay with UACC-257 melanoma it was 19.8 µM. For the same molecule, the TGI in the assay with CAKI-1 renal amounted to 32.2 µM; in the assay with HOP-92 NSCLC, 29.6 µM; in the assay with SF-268 CNS it was 22.9 µM; in the assay on UACC-62 melanoma, 28.7 µM; in the assay on HCC-2998 colon, 27 µM.
On to `CN(C)c1ccc(/C=C(\NC(=O)c2ccccc2)C(=O)Nc2cccc(C(=O)NCCCO)c2)cc1`, for which the TGI in the assay on 786-0 renal, in the assay on A549 NSCLC, with HT29 colon, with MALME-3M melanoma, in the assay on DU-145 prostate and with NCI-H23 lung was greater than 100 µM throughout. Further, the TGI in the assay on BT-549 breast, with SW-620 colon, in the assay on IGROV1 ovarian, in the assay on UO-31 renal, with T-47D breast and with UACC-257 melanoma was greater than 100 µM throughout. Further, the TGI in the assay on CAKI-1 renal, with HOP-92 NSCLC, with SF-268 CNS, in the assay on UACC-62 melanoma and in the assay on HCC-2998 colon was greater than 100 µM in each case.
Take `Cc1ccccc1Nc1nc(NNC(=O)Cc2ccccc2)nc(NNC(=O)c2ccncc2)n1`: the TGI in the assay on 786-0 renal, in the assay on HT29 colon, in the assay with MALME-3M melanoma, with DU-145 prostate, with BT-549 breast and in the assay with IGROV1 ovarian was greater than 10 µM in each case. For the same molecule, the TGI with UO-31 renal, in the assay with T-47D breast, in the assay with UACC-257 melanoma, in the assay on CAKI-1 renal, in the assay with HOP-92 NSCLC and in the assay on SF-268 CNS was greater than 10 µM in each case. The TGI in the assay on UACC-62 melanoma and with HCC-2998 colon was greater than 10 µM each time.
